Measured values as given in patent publication US20260376293A1, “METHODS FOR STUDYING GPR158 PHARMACOLOGY AND IDENTIFICATION OF ITS LIGANDS” (UNIVERSITY OF FLORIDA RESEARCH FOUNDATION, INCORPORATED, priority 2022, published 2026).

Target: T1, GPR158 (Homo sapiens, UniProt Q5T848)
T1 sequence (Q5T848 24-1215): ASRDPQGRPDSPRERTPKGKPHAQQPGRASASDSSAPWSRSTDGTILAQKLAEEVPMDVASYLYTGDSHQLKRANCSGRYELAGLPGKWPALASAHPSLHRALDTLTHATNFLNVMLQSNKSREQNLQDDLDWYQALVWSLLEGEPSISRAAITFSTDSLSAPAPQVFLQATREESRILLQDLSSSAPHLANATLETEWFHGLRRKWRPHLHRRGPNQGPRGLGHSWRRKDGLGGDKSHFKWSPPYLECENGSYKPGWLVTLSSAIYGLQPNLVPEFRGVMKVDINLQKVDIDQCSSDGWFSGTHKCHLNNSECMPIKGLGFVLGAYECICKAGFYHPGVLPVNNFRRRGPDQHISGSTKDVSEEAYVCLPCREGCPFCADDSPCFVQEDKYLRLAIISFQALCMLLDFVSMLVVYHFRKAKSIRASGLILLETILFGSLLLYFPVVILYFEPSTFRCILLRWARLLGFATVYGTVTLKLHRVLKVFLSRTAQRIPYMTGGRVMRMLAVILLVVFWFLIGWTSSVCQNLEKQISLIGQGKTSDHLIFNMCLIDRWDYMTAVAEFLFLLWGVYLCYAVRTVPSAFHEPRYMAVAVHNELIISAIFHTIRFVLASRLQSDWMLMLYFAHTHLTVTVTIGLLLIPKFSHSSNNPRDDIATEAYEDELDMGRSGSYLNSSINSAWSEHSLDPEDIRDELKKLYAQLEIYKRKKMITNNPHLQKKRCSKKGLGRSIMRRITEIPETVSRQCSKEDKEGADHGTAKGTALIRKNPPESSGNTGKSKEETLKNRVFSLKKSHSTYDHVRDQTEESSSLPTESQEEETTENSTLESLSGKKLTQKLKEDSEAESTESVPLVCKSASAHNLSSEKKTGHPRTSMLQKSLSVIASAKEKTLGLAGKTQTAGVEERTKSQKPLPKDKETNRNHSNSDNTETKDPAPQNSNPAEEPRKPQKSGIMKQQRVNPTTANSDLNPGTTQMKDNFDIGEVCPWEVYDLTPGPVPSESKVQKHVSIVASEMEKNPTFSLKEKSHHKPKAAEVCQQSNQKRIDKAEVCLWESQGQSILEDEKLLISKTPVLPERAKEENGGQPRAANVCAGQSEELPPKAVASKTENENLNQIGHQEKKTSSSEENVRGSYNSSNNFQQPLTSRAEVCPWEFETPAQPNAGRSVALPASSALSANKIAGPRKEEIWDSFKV
Experiment: Membrane radioligand saturation binding (Scatchard)
Design: expressed in transfected cells; host or cells: HEK293FT
Conditions: for Kd: Scatchard plot, HEK293 membranes expressing GPR158, n=4
Protocol: FIGS. 9A-9H. Direct interaction of glycine with GPR158 A) Schematics of assay design for detecting glycine binding to GPR158 by flow cytometry. Cells transfected with GPR158 are incubated with FITC-glycine and fluorescence labeling of cells is detected by flow cytometry. B) Representative flow cytometry histogram showing distribution of cellular populations after sorting. C) Quantification of FITC-glycine binding detected in flow cytometry binding experiments. The median of fluorescence (MFI) is quantified and plotted. Error bars are s.e.m. values, N=3, **p<0.01, ****p<0.0001, two-way ANOVA. D) Schematics of the radioligand binding assay. E) Quantification of ^3H-glycine binding to membrane expressing GPR158. Count Per minute (CPM) are measured and plotted. Data shown mean of 4 independent experiments error bars are s.e.m. values, n=4. […] Data shown mean of 4 independent experiments error bars are s.e.m. values, n=4. […] Control (thick line), GPR158 (thin line) I) Quantification of binding determined by fitting the integrated isotherm to an independent binding model.
Next, the inventors performed radioligand binding assays examining binding of [^3H]-labeled glycine to HEK293 cells expressing GPR158 (FIG. 7A). […] The inventors detected saturable [^3H]-glycine binding to membranes containing GPR158 is substantial excess over linear non-specific binding to membranes devoid of GPR158 (FIG. 9E). […]
Membrane binding assay was conducted using HEK293FT cells cultured in 6 well plates at the density of 10^6 per well and transfected with 2 μg of cDNA of GPR158 or empty pcDNA3.1+ for ctrl cells using Metafectene Pro. […] Finally, each filter was incubated in 5 ml of scintillation cocktail (Ecoscint XR, National Diagnostics), homogenized and radioactivity were measured using the liquid scintillation counter Hidex 600SL. The saturation binding curve, Scatchard plots and affinity KD and Bmax constants were calculated using Graphpad Prism 9.0 by fitting a non-linear regression binding saturation curve. […]

| Structure (SMILES) | Kd [nM] | binding to membranes containing GPR158 (excess over linear non-specific binding to membranes devoid of GPR158) |
| --- | --- | --- |
| NCC(=O)O [^3H-glycine, [^3H]-glycine] | 2620 ± 1820 | saturable |
| NCC(=O)O [glycine] | ~3000 |  |
